Marks after values point to notes of the source that are not given here. Square brackets hold non-standard residues; d marks the D form. Peptide text beside a SMILES is read from it. * marks the point of attachment. Phe(4-Cl) = N[C@@H](Cc1ccc(Cl)cc1)C(=O)O; hArg = N=C(N)NCCCC[C@H](N)C(=O)O; Nle = CCCC[C@H](N)C(=O)O; Abu = CC[C@H](N)C(=O)O; PhAc = O=C(Cc1ccccc1)*
What was measured:
Format in all cases: in vivo
[1] = system: MDA-MB-468 human breast cancer xenografts; test: MDA-MB-468 human breast cancer xenografts in nude mice; conditions: 20 μg daily s.c., 5 weeks
Protocol: Nude mice bearing MDA-MB-468 hormone-independent human breast cancer xenografts were divided into groups of 10 animals each. The treated groups received single daily s.c. injections of 20 μg of GH-RH antagonists. One group was treated with Peptide 1, a second group was treated with MZ-5-156 for comparison. The control group was injected with the vehicle solvent. The treatment was continued for 5 weeks. Tumors were measured once a week and tumor volume was calculated. The mice were sacrificed at the end of experiment and tumor weights were measured.

[2] = system: U87MG human glioblastoma xenografts; test: U87MG human glioblastoma xenografts in nude mice; conditions: 20 μg daily s.c., 28 days
Protocol: Mice were implanted s.c. with U87MG glioblastomas and when tumors reached a volume of approx. 70 mm^3 the mice were randomly divided into 2 experimental groups. One group was treated with Peptide 1 in single daily s.c. injections of 20 μg for 28 days, while the other group served as control.

[3] = system: HT-29 human colon cancers; test: HT-29 human colon cancer xenografts in nude mice; conditions: 20 μg daily sc., 6 weeks
Protocol: HT-29 human colon cancers were transplanted sc. into male nude mice. 19 days after transplantation, the mice were divided into groups of 10 animals each, and the treatment was started. The mice received single daily injections of various GH-RH antagonists sc. at 20 μg dose per day for 6 weeks. Tumors were measured regularly, and tumor volume was calculated. The mice were sacrificed at the end of experiment and tumor weights were measured.

[4] = system: Estrogen independent MXT mouse mammary tumors; test: MXT mouse mammary tumors in BDF mice; conditions: for Tumor weights: day 18; for Number of surviving mice: groups of 10
Protocol: Estrogen independent MXT tumors were transplanted sc. to female BDF mice. One day after transplantation, the mice were divided into groups of 10 animals each, and the treatment was started. The mice in groups 1, 2, 3, and 4 received single injections daily of various GH-RH antagonists sc. at 20 μg dose per day for 18 days. In groups 5 and 6, the peptides were administered by Alzet osmotic pumps releasing a daily amount of 20 μg peptide. Tumors were measured regularly, and tumor volume was calculated. The mice were sacrificed on day 18 and tumor weights were measured.

[5] = system: PC-3 human prostate cancer xenografts; test: PC-3 human prostate cancer xenografts in nude mice; conditions: 20 μg daily s.c., 21 days
Protocol: Male nude mice were implanted s.c. with 3 mm^3 pieces of PC-3 human hormone-independent prostate cancer tissue into both flanks. When tumors reached a volume of approx. 40–50 mm^3 the mice were divided into 3 experimental groups. The first and second groups were treated with peptides Peptide 3 and MZ-5-156, respectively, in single daily s.c. injections of 20 μg for 21 days, while the third group served as control. Tumor volumes were measured at weekly intervals, tumor weights were measured at the end of experiment.

[6] = Alzet osmotic pump, 20 μg daily
[7] = single daily sc. injections, 20 μg per day

Compound | Final tumor volume (mm^3) ([1]; nude mice) | Tumor weight ([1]; nude mice) [mg] | Number of regressed tumors ([1]; groups of 10) | Final tumor volume (mm^3) [2] | Tumor weight [2] [g] | Inhibitory effect on HT-29 human colon cancers (in words) [3] | Final tumor volume (mm^3) ([3]; nude mice) | Tumor weight ([3]; nude mice) [mg] | Tumor volume (mm^3) On day 14 [4, 6] | Tumor volume (mm^3) On day 18 [4, 6] | Tumor weights [4, 6] [mg] | Number of surviving mice [4, 6] | Tumor volume (mm^3) On day 14 [4, 7] | Tumor volume (mm^3) On day 18 [4, 7] | Tumor weights [4, 7] [mg] | Number of surviving mice [4, 7] | Inhibition in tumor volume [5] [%] | Inhibition in tumor weight [5] [%] | Final tumor volume (mm^3) ([5]; nude mice) | Tumor weight ([5]; nude mice) [mg]
CCCC[C@H](NC(=O)[C@@H](NC(=O)[C@H](CC(=O)O)NC(=O)[C@H](CCC(N)=O)NC(=O)[C@H](CC(C)C)NC(=O)[C@H](CC(C)C)NC(=O)[C@H](CCCCN)NC(=O)[C@H](CCCNC(=N)N)NC(=O)[C@H](C)NC(=O)[C@H](CO)NC(=O)[C@H](CC(C)C)NC(=O)[C@H](CCC(N)=O)NC(=O)[C@H](CC)NC(=O)[C@H](CC(C)C)NC(=O)[C@@H](NC(=O)[C@H](CCCCN)NC(=O)[C@H](CCCNC(=N)N)NC(=O)[C@H](Cc1ccc(O)cc1)NC(=O)[C@H](CCCNC(=N)N)NC(=O)[C@H](CC(N)=O)NC(=O)[C@@H](NC(=O)[C@H](Cc1ccc(Cl)cc1)NC(=O)[C@@H](NC(=O)[C@H](C)NC(=O)[C@H](CC(=O)O)NC(=O)[C@@H](CCCNC(=N)N)NC(=O)[C@H](Cc1ccc(O)cc1)NC(=O)Cc1ccccc1)[C@@H](C)CC)[C@@H](C)O)C(C)C)[C@@H](C)CC)C(=O)N[C@H](CCCNC(=N)N)C(=O)N[C@@H](CCCCNC(=N)N)C(N)=O [Peptide 1, [PhAc^0, D-Arg^2, Phe(pCl)^6, Arg^9, Abu^15, Nle^27, D-Arg^28, Har^29]hGH-RH(1–29)NH2] (PhAc-Y[dR]DAI[Phe(4-Cl)]TNRYRKVL[Abu]QLSARKLLQDI[Nle][dR][hArg]-NH2) | 82.4 ± 29.1** mm^3 | 64.0 ± 28.7 | 4 | 817 ± 323** mm^3 | 1.4 ± 0.7 | equally strong inhibitory effect | 890 ± 322* mm^3 | 1354 ± 480 | 1329 ± 327** mm^3 | 3403 ± 584** mm^3 | 4810 ± 645 | 7 | 2924 ± 654 mm^3 | 4373 ± 381** mm^3 | 6964 ± 676 | 6 |  |  |  | 
CCCC[C@H](NC(=O)[C@@H](NC(=O)[C@H](CC(=O)O)NC(=O)[C@H](CCC(N)=O)NC(=O)[C@H](CC(C)C)NC(=O)[C@H](CC(C)C)NC(=O)[C@H](CCCCN)NC(=O)[C@H](CCCNC(=N)N)NC(=O)[C@H](C)NC(=O)[C@H](CO)NC(=O)[C@H](CC(C)C)NC(=O)[C@H](CCC(N)=O)NC(=O)[C@H](CC)NC(=O)[C@H](CC(C)C)NC(=O)[C@@H](NC(=O)[C@H](CCCCN)NC(=O)[C@H](CCCNC(=N)N)NC(=O)[C@H](Cc1ccc(OC)cc1)NC(=O)[C@H](CCCCNC(=N)N)NC(=O)[C@H](CC(N)=O)NC(=O)[C@@H](NC(=O)[C@H](Cc1ccc(Cl)cc1)NC(=O)[C@@H](NC(=O)[C@H](C)NC(=O)[C@H](CC(=O)O)NC(=O)[C@@H](CCCNC(=N)N)NC(=O)[C@H](Cc1ccc(O)cc1)NC(=O)Cc1ccccc1)[C@@H](C)CC)[C@@H](C)O)C(C)C)[C@@H](C)CC)C(=O)N[C@H](CCCNC(=N)N)C(=O)N[C@@H](CCCCNC(=N)N)C(N)=O [Peptide 3, [PhAc^0, D-Arg^2, Phe(pCl)^6, Har^9, Tyr(Me)^10, Abu^15, Nle^27, D-Arg^28, Har^29]hGH-RH(1–29)NH2] (PhAc-Y[dR]DAI[Phe(4-Cl)]TN[hArg]Y(Me)RKVL[Abu]QLSARKLLQDI[Nle][dR][hArg]-NH2) |  |  |  |  |  |  |  |  | 1688 ± 220** mm^3 | 4272 ± 295** mm^3 | 5939 ± 453 | 8 | 1902 ± 349** mm^3 | 3465 ± 607** mm^3 | 5266 ± 906 | 8 | 65 | 62 | 107.9 ± 12.5* mm^3 | 73.7 ± 11.9

Reference: patent US7026281B1, “Antagonistic analogs of GH-RH inhibiting IGF-I and -II” (The Administrators of the Tulane Educational Fund, priority 1998, dated 2006)
